# Measured values: patent US11465989B2, “Guanidine compounds and use thereof” (IMMUNOMET THERAPEUTICS INC., priority 2014, dated 2022)
# Counter-ions that a name gives are not always drawn.
# How the values were obtained:
# [1] = system: H1975 cell; assay: In vitro combination study with Dasatinib on H1975 cell; type: cell-based; details: 0.2 μM of Dasatinib, 8 μM or 40 μM of Example 1, 40 μM or 200 μM of Example 104
# Experimental: (§1) A549, H1975 (CRL5908, ATCC) or U937 cell (CRL1593.2™, ATCC) lines were cultured in RPMI 1640 media (Lifetechnologies, CA) with supplement of 10% FBS and antibiotic-antimycotic (Lifetechnologies, CA). Dasatinib (Combi-Blocks, San Diego, Calif.) is Bcr-Abl-tyrosine kinase inhibitor and Src family tyrosine kinase inhibitor approved for CML treatment. GDC094 (Selleckchem, Houston, Tex.) is a pan-PI3K inhibitor and effective in various cancer cells. H1975 or A549 cells were dissociated from culture plate using 0.5% trypsin-EDTA (Lifetechnologies, CA) and were suspended. U937 cells were spun down using centrifugation. […]
# (§2) Among four concentrations of the compounds of present invention, the highest concentration was set to IC80 and the lowest concentration was approximately IC30. […] 100 μl of DMSO was added after removing MTT solution from each well, and were read by VICTOR X3 Multilabel Counter at the wavelength of 550 nm.
# (§3) For the analysis of U937 cell viability, 20 μl of Celltiter96® AQueous one solution (MTS, Promega, Madison, Wis.) were added to each well, and plates were incubated at 37° C. and 5% CO2. After 2 hours later, plates read by VICTOR X3 Multilabel Counter at the wavelength of 490 nm. The combination index (CI value) was calculated using Calcusyn (Biosoft, UK).
# [2] = system: A549 cells; assay: Inhibition of OCR (XF Analyzer); type: cell-based; details: Homo sapiens, A549, 24 h
# Text: The electron transfer complex in mitochondria is composed of 5 complexes. The complex I accept electrons from NADH produced from glycolysis and TCA cycle and the electrons move to complex […] and the electron is finally transferred to O2 and water molecule is generated. During the electron transfer, proton gradient is generated and the chemical gradient is a driving source to synthesize ATP at complex V. The mitochondrial inhibition of complex I indirectly assessed by measuring the oxygen consumption rate (OCR) at complex IV. […] The solution outside of cells becomes acidic (lower pH) as lactate is transported to outside of cells. OCR and Extracellular acidification rate (ECAR) are determined by XF Analyzer (Seahorse Biosciences).
# A549 cells were purchased from American Type Tissue Culture Collection ([…]) and cultured in RPMI 1640 supplied with 10% fetal bovine serum (FBS) and antibiotic-antimycotic (Lifetech, CA). A549 cells were separated with 0.5% Trypsin-EDTA and 3,000 cells were plated on 1 mg/ml poly-D-lysine (Sigma, P6407) coated XF 96 well […]. A549 cells were allowed to adhere to the wells for 24 hours under the condition of temperature, 37° C. and 5% CO2 The sensor cartridge of XF Analyzer was soaked in 200 Ad of Calibrant solution (Seahorse, MA) in a clear 96-well plate at 37° C. for 24 hours. The compounds of the present invention were diluted with RPMI 1640 without FBS, transferred to A549 cells on XF 96 well plate, and incubated further for 23 hours at 37° C. and 5% CO2. After incubation, the compound solution was exchanged with pre-warmed and pH adjusted (pH7.4) XF assay media (Seahorse) supplied with 15 mM D-glucose (Sigma), 15 mM sodium pyruvate (Lifetechnologies, CA) and 4 mM L-glutamine (Lifetechnologies, CA). The compounds of present invention were prepared in XF Assay media and added to the assay plate. The assay plate was equilibrated in XF Analyzer for 1 hour, and the reading were started by sensor cartridge. The cytotoxicity assay was followed using Cyquant (Lifetechnologies, CA) in order to calibrate the inhibition with cytotoxicity of compounds. The concentrations of the compounds were tested at […] and IC50 value was obtained from the inhibited values. That is, from OCR inhibition values at each concentration of the compound, IC50 was calculated according to Prism's dose response curve fitting.
# In Table 1, the levels of OCR IC50 are evaluated by the following.
# [3] = system: SK-MEL-28 cells; assay: Cytotoxicity in low glucose condition (MTT); type: cell-based; details: Homo sapiens, SK-MEL-28, 0.75 mM glucose, 72 hours, read-out: SK-MEL-28 0.75 mM glucose Cell viability (IC50 ia)
# Text: The inhibition of oxidative phosphorylation (OXPHOS) is not cytotoxic to cells in normal glucose condition, because it is postulated that normal cells have compensatory mechanism under energy stress conditions such as low glucose. However OXPHOS inhibitors show cytotoxic effect on cells in the glucose deprived condition (BirsoyK, 2014). The glucose deprived condition is observed in tumor microenvironment potentially due to poor angiogenesis. Therefore the OXPHOS inhibitors may show anti-cancer effect on cancer cells in low glucose condition that may depict tumor microenvironment.
# The compounds of the present invention were evaluated their cytotoxicity in SK-MEL-28, melanoma with 0.75 mM glucose supplement. The cytotoxic effect is compared with the cytotoxicity caused by phenformin. The cytotoxicity in low glucose condition is correlated with inhibition of oxygen consumption in mitochondria.
# SK-MEL-28 (HTB-72) is a melanoma cell line obtained from ATCC (MA) and cultured in RPMI 1640 media (Lifetechnologies, CA) with supplement of 10% FBS and antibiotic-antimycotic (Lifetechnologies, CA). RPMI 1640 (-Glucose) was used to prepare low glucose media and 0.75 mM glucose was supplied with D-(+)-glucose solution from Sigma. SK-MEL-28 cells were separated from culture plate using 0.5% trypsin-EDTA and 5,000 cells were plated in 96-well plate with low glucose media. After incubation at 37° C. for 24 hour, 5% CO2, the cells were treated with the compounds of present invention in FBS-free media for 72 hours. The cytotoxicity was measured by the MTT (AMRESCO, OH) assay. NADH-dependent cellular oxidoreductase reduces MTT to its insoluble […] with purple color. The enzyme depends on cell number or energy state of cells. 10 μl of 5 mg/ml MIT solution was added to each well of the assay plate and skip the well for blank. The plate was incubated at 37° C. and 5% CO2 for 2 hours. The MTT solution was removed from each well and 100 μl of DMSO was added. The plate was read by VICTOR X3 Multilabel Counter at the wavelength of 550 nm. In Table 2, the levels of IC50 are evaluated by the following criteria.
# [4] = system: SK-MEL-239 tumor cells; assay: In vivo xenograft model using SK-MEL-239 cell; set-up: species or system mice
# Experimental: The compounds of the present invention were evaluated in vivo using xenograft human cancer model in mice. The compounds of invention were administrated orally or interperitoneal injection. Tumor cell lines were cultured in vitro as monolayer culture. Using female BALB/c nude mice with immune system compromised, each mouse was inoculated subcutaneously at the right flank with tumor cells for tumor development. The treatment was started when the tumor size reaches approximately 100 mm^3
# The SK-MEL-239 tumor cell line was maintained in vitro as monolayer in RPMII 640 medium supplemented with 10% heat inactivated fetal bovine serum, 100 U/ml penicillin and 100 μg/ml streptomycin, and L-glutamine (2 mM) at 37° C. in an atmosphere of 5% CO2 in air. The tumor cells were routinely subcultured twice weekly with 0.5% trypsin-EDTA treatment. The cells growing in an exponential growth phase were harvested and counted for tumor cell inoculation.
# Female BALB/c nude mice aged 6-8 weeks and weighing approximately 18-22 g were purchased from Vital River. Each mouse was inoculated subcutaneously at the right flank with SK-MEL-239 tumor cells (1×10^7) in 0.1 ml of PBS for tumor development. The treatment was started, when the tumor size reaches approximately 100 mm^3. 100 mg/kg of Phenformin and 15 mg/kg of Vemurafenib were administered via oral gavage twice daily and 100 mg/kg HLPOI (HL176001001) was administered once daily for 21 days. Tumor volumes were measured twice a week in two dimensions using a caliper, and the volume was expressed in mm^3 using the formula: V=0.5×a×b^2, where a and b were the long and short diameters of the tumor, respectively. The T/C value (in percentage) was an indication of antitumor effect. T and C were the mean volumes of the treated and control groups, respectively.
# [5] = system: A549 cells; assay: In vitro combination study with Dasatinib on A549 cell; type: cell-based; details: 0.05 μM of Dasatinib and 8 μM of Phenformin
# Experimental: as §1, §2, §3
# [6] = system: SK-MEL-239 tumor cells; assay: In vivo xenograft model using SK-MEL-239 cell; set-up: species or system mice; details: Dosing 150/100 mg/kg, oral, twice daily
# [7] = Dosing 15 mg/kg, oral, twice daily, Day 28
SMILES,IC50 [2] [µM],IC50 [3] [µM],other results
"Cl.N=C(N)NC(=N)NCCc1ccc(F)cc1 [Example 104, N-1-(4-fluoro)phenethylbiguanide hydrochloride]",,,combination therapy effect with Dasatinib [1]: low combination therapy effect
"CNC(=N)NC(=N)NCCc1ccc(Cl)c(Cl)c1 [Example 122, N-1-(3,4-dichloro)phenethyl-N5-methylbiguanide hydrochloride]",> 5,5 to 10,
"CNC(=N)NC(=N)NCCc1ccc2c(c1)CCCC2 [Example 126, N-1-methyl-N-5-(2-(5,6,7,8-tetrahydronaphthalen-2-yl)ethyl) biguanide hydrochloride]",> 5,< 5,
"CCCNC(=N)NC(=N)NCCc1ccc(Cl)c(Cl)c1 [Example 128, N-1-propyl-N-5-(3,4-dichloro)phenethylbiguanide hydrochloride]",> 5,< 5,
"Cc1ccc(CCNC(=N)N)cc1C [Example 133, 1-(3,4-dimethylphenethyl)guanide hydrochloride]",< 2,5 to 10,
"N=C(N)NCc1c(F)cc(F)cc1F [Example 153, 1-(2,4,6-trifluorobenzyl)guanide hydrochloride]",> 5,> 10,
"Cc1ccccc1CCNC(=N)N [Example 161, 1-(2-methylphenethyl)guanide hydrochloride]",2 to 5,> 10,
"Cc1cc(F)ccc1CCNC(=N)N [Example 169, 1-(4-fluoro-2-methylphenethyl)guanide hydrochloride]",> 5,> 10,
"N=C(N)NCCc1ccc(C2CC2)cc1 [Example 182, 1-(4-cyclopropylphenethyl)guanide hydrochloride]",2 to 5,5 to 10,
"N=C(N)NCCc1ccc2c(c1)CCCC2 [Example 183, 1-(2-(5,6,7,8-tetrahydronaphthalen-2-yl)ethyl)guanide hydrochloride]",< 2,< 5,
"N=C(N)NCCc1ccc(-c2ccccc2)cc1 [Example 195, 1-(4-phenylphenethyl)guanide hydrochloride]",2 to 5,< 5,
"N=C(N)NCCC1CCCCC1 [Example 197, 1-(2-cyclohexylethyl)guanide hydrochloride]",2 to 5,> 10,
"N=C(N)NCc1ccc2c(c1)CCCC2 [Example 199, 1-((5,6,7,8-tetrahydronaphthalen-2-yl)methylguanide hydrochloride]",> 5,> 10,
"N=C(N)NCCC1CCCC1 [Example 204, 1-(2-cyclopentylethyl) guanide hydrochloride]",2 to 5,> 10,
"N=C(N)NCC1CCCCC1 [Example 205, 1-(1-cyclohexylmethyl) guanide hydrochloride]",2 to 5,> 10,
"[H]/N=C(/N)N/C(=N/[H])NCCc1ccccc1 [Phenformin, phenformin, reference compound]",,,"tumor volume compared to the control group ([4]; 100 mg/kg, Phenformin twice daily, Example 1 once daily): significant reduction of tumor volume; tumor volume compared to the single administration of Vemurafenib ([4]; in combination with 15 mg/kg of Vemurafenib): did not show the significant reduction of tumor volume; synergic effect in combination with Dasatinib [5]: did not show the synergic effect; T/C (Day 28, %) [6]: 52.2%; Tumor Volume (Day 28, mm^3, a) [6]: 1,562 ± 166 mm^3"
"CCCS(=O)(=O)Nc1ccc(F)c(C(=O)c2c[nH]c3ncc(-c4ccc(Cl)cc4)cc23)c1F [Vemurafenib, reference compound]",,,"T/C (Day 28, %) [4, 7]: 38.0%; Tumor Volume (Day 28, mm^3, a) [4, 7]: 1,144 ± 101 mm^3"
